Data published in patent EP0609289B1, “IMIDAZOLE DERIVATIVES AND PHARMACEUTICAL COMPOSITIONS CONTAINING THE SAME” (THE UPJOHN COMPANY, priority 1991, dated 1993).

Tests used:
[1] = test system: angiotensin II constriction in an isolated rabbit thoracic aorta; test: Antagonism to angiotensin II constriction in an isolated rabbit thoracic aorta (test 3); settings: test compound 10^-6 M for 20 minutes
Description: 3) Antagonism to angiotensin II constriction in an isolated rabbit thoracic aorta
A rectangular strip-like sample of thoracic aorta isolated from an anaesthetized rabbit was prepared, and the sample was suspended at 2.0 g of loaded tension in a Magnus tube filled with Krebs-Henseleitoid nutrition solution which was well aerated with 95% O2-5% CO2, and the constriction tension was measured using an isometric transducer. After the tension of the sample at rest became stable, accumulative administration of angiotensin II was carried out to obtain a concentration-action curve. Thereafter, the sample was washed with the same nutrition solution, then treated with test compound (10^-6 M) for 20 minutes to obtain again a concentration-action curve of angiotensin II. The results were obtained as followed: generated maximum tension at the first accumulative administration of angiotensin II was regarded as 100 %, and the 50 % effective concentration (ED50) was obtained in the presence or absence of the test compound, and pA2 value was calculated according to the following equations: • pA2=-logKB KB=C/{(A'/A)-1} • C; concentration of the test compound (M) • A'; ED50 in the presence of test compound (M) • A; ED50 in the absence of the test compound (M)

Angiotensin II receptor = test: In vitro angiotensin II mesenteric artery receptor binding assay (test 1); settings: rat mesenteric artery membrane fraction, 0.2 nM 125I-Ang II, 22°C, 90 minutes
How it was run: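 Rat mesenteric artery membranes ([…] protein equivalent) incubated with 0.2 nM ^125I-Ang II and compound, 90 min at 22°C, pH 7.2 Tris buffer. Bound radioactivity counted after filtration; nonspecific binding defined with 1 µM unlabeled angiotensin II.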

[2] = test system: blood pressure increase by angiotensin II; test: Antagonism to blood pressure increase by angiotensin II in a spine destroyed (pithed) rat (test 4); type: in vivo, Wistar rat; settings: intravenous administration, 3µg/kg angiotensin II, read-out: Inhibition of blood pressure increase by angiotensin II in pithed rat ED50(mg/kg) (test 4)
Text: 4) Antagonism to blood pressure increasing by angiotensin II in a spine destroyed rat
Wistar rat anaesthetized with pentobarbital was fixed at dorsal position, and a cannula for measuring blood pressure was inserted into sinister arteria carotis communis, and a cannula for administration of the test compound into dexter external jugular vein and a cannula for administration of angiotensin II into sinister external jugular vein, ambilateral nervus vagus was cut, and artificial respiration was carried out. A thin bar made of metal was stabbed into spinal column through sinister orbita to destroy spine. Blood pressure was recorded on polygraph via pressure transducer from an arterial cannula. After blood pressure was stable for more than 30 min., 3µg/kg of angiotensin II was administered intravenously four times every 15 min, and every 5 min. before the administration of angiotensin II from the second administration onward, a solvent, a lower dose of the test compound, and a higher dose of the test compound were administered intravenously in this order to observe the blood pressure increasing response by angiotensin II. ED50 values were calculated from the inhibiting rate when the first blood pressure increase by angiotensin II was regarded as 100 %.

Row | SMILES | IC50 (Angiotensin II receptor) [nM] | Inhibition of rabbit aorta constriction pA2 (test 3) [1] | ED50 [2] [mg/kg]
1 | CCCCc1nc2c(=O)n3n(c(=O)c2n1Cc1ccc(-c2ccccc2-c2nn[nH]n2)cc1)CC(C)C(C)C3 (centres unmarked) [Compound No. 51, 2-n-butyl-6,7-dimethyl-5,6,7,8-tetrahydro-1-[(2'-(1H-tetrazol-5-yl)biphenyl-4-yl)methyl]-1H-1,3,4a,8a-tetraza-cyclopentanaphthalene-4,9-dione] | 4.6 | 9.04 | 0.65
2 | CCCCc1nc2c(=O)n3n(c(=O)c2n1Cc1ccc(-c2ccccc2-c2nn[nH]n2)cc1)CC=CC3 [Compound No. 71, 2-n-butyl-5,8-dihydro-1-[(2'-(1H-tetrazol-5-yl)biphenyl-4-yl)methyl]-1H-1,3,4a,8a-tetraza-cyclopentanaphthalene-4,9-dione] | 7 | 9.09 | 
3 | CCCc1nc2c(=O)n3n(c(=O)c2n1Cc1ccc(-c2ccccc2-c2nn[nH]n2)cc1)C(C)CCC3C(=O)O (centres unmarked) [Compound No. 111, 4,9-dioxo-8-methyl-2-n-propyl-5,6,7,8-tetrahydro-1-[(2'-(1H-tetrazol-5-yl)biphenyl-4-yl)methyl]-1H-1,3,4a,8a-tetraza-cyclopentanaphthalene-5-carboxylic acid] | 21 | 9.01 | 0.51
4 | CCCc1nc2c(=O)n3n(c(=O)c2n1Cc1ccc(-c2ccccc2-c2nnn[nH]2)cc1)C1CCC3(COCC(=O)OC(C)(C)C)CC1 [Compound No. 223, 5-t-butoxycarboxylmethoxymethyl-5,8-ethano-2-n-propyl-5,6,7,8-tetrahydro-1-[{2'-(1H-tetrazol-5-yl)biphenyl-4-yl}methyl]-1H-1,3,4a,8a-tetraza-cyclopentanaphthalene-4,9-dione] | 9.8 | 9.68 | 0.1
5 | CCCc1nc2c(=O)n3n(c(=O)c2n1Cc1ccc(-c2ccccc2-c2nn[nH]n2)cc1)C1CCC3(C(=O)NC(C)(C)C)CC1 [Compound No. 235, 4,9-dioxo-5,8-ethano-2-n-propyl-5,6,7,8-tetrahydro-1-[{2'-(1H-tetrazol-5-yI)biphenyl-4-yl}methyl]-1H-1,3,4a,8a-tetraza-cyclopentanaphthalene-5-carboxy-N-t-butylamide] | 21 | 9.62 | 0.07
6 | CCCc1nc2c(n1Cc1ccc(-c3ccccc3-c3nn[nH]n3)cc1)C(=O)N1CCCCN1C2 [Compound No. 366, 2-n-propyl-5,6,7,8-tetrahydro-1-[{2'-(1H-tetrazol-5-yl)biphenyl-4-yl}methyl]-1H,4H-1,3,4a,8a-tetraza-cyclopentanaphthalene-9-one] | 32 | 9.32 | 
7 | CCCc1nc2c(n1Cc1ccc(-c3ccccc3-c3nn[nH]n3)cc1)C(=O)N1C(C)CCC(C)N1C2 (centres unmarked) [Compound No. 430, 5,8-dimethyl-2-n-propyl-5,6,7,8-tetrahydro-1-[{2'-(1H-tetrazol-5-yl)biphenyl-4-yl}methyl]-1H,4H-1,3,4a,8a-tetraza-cyclopentanaphthalene-9-one] | 3.9 | 10.04 | 
8 | CCCc1nc2c(n1Cc1ccc(-c3ccccc3-c3nn[nH]n3)cc1)C(=O)N1C3CCC(CC3)N1C2 [Compound No. 438, 5,8-ethano-2-n-propyl-5,6,7,8-tetrahydro-1-[{2'-(1H-tetrazol-5-yl)biphenyl-4-yl}methyl],1H,4H-1,3,4a,8a-tetraza-cyclopentanaphthalene-9-one] | 7.5 | 8.57 | 0.37

Second part, led by results:

Row | IC50 (Angiotensin II receptor) [nM] | SMILES | Inhibition of rabbit aorta constriction pA2 (test 3) [1] | ED50 [2] [mg/kg]
9 | 3.3 | CCCc1nc2c(=O)n3n(c(=O)c2n1Cc1ccc(-c2ccccc2-c2nn[nH]n2)cc1)CCCC3 [Compound No. 46, 2-n-propyl-5,6,7,8-tetrahydro-1-[(2'-(1H-tetrazol-5-yl)biphenyl-4-yl)methyl]-1H-1,3,4a,8a-tetraza-cyclopentanaphthalene-4,9-dione] | 8.95 | 
10 | 1.5 | CCCc1nc2c(=O)n3n(c(=O)c2n1Cc1ccc(-c2ccccc2-c2nn[nH]n2)cc1)C1C=CC3CC1 (centres unmarked) [Compound No. 105, 5,8-dihydro-5,8-ethano-2-n-propyl-1-[(2'-(1H-tetrazol-5-yl)biphenyl-4-yl)methyl]-1H-1,3,4a,8a-tetraza-cyclopentanaphthalene-4,9-dione] | 9.42 | 0.1
11 | 1.9 | CCCc1nc2c(=O)n3n(c(=O)c2n1Cc1ccc(-c2ccccc2-c2nn[nH]n2)cc1)C1CCC3CC1 [Compound No. 108, 5,8-ethano-2-n-propyl-5,6,7,8-tetrahydro-1-[(2'-(1H-tetrazol-5-yl)biphenyl-4-yl)methyl]-1H-1,3,4a,8a-tetraza-cyclopentanaphthalene-4,9-dione] | 9.53 | 0.069
12 | 2.8 | CCCCc1nc2c(=O)n3n(c(=O)c2n1Cc1ccc(-c2ccccc2-c2nn[nH]n2)cc1)C1CCC3CC1 [Compound No. 109, 2-n-butyl-5,8-ethano-5,6,7,8-tetrahydro-1-[(2'-(1H-tetrazol-5-yl)biphenyl-4-yl)methyl]-1H-1,3,4a,8a-tetraza-cyclopentanaphthalene-4,9-dione] | 9.49 | 0.21
13 | 1.9 | CCCc1nc2c(=O)n3n(c(=O)c2n1Cc1ccc(-c2ccccc2-c2nn[nH]n2)cc1)C(C)CCC3C(=O)OCC (centres unmarked) [Compound No. 139, ethyl 4,9-dioxo-8-methyl-2-n-propyl-5,6,7,8-tetrahydro-1-[(2'-(1H-tetrazol-5-yl)biphenyl-4-yl)methyl]-1H-1,3,4a,8a-tetraza-cyclopentanaphthalene-5-carboxylate] | 10.63 | 0.038
14 | 1.9 | CCCc1nc2c(=O)n3n(c(=O)c2n1Cc1ccc(-c2ccccc2-c2nn[nH]n2)cc1)C(C)CCC3C(=O)N(CC)CC (centres unmarked) [Compound No. 203, 4,9-dioxo-8-methyl-2-n-propyl-5,6,7,8-tetrahydro-1-[{2'-(1H-tetrazol-5-yl)biphenyl-4-yl}methyl]-1H-1,3,4a,8a-tetraza-cyclopentanaphthalene-5-carboxy-N,N-diethylamide] | 10.0 | 
15 | 3.9 | CCCc1nc2c(=O)n3n(c(=O)c2n1Cc1ccc(-c2ccccc2-c2nnn[nH]2)cc1)C(C)CCC3C(=O)NC(C)(C)C (centres unmarked) [Compound No. 207, 4,9-dioxo-8-methyl-2-n-propyl-5,6,7,8-tetrahydro-1-[{2'-(1H-tetrazol-5-yl)biphenyl-4-yl}methyl]-1H-1,3,4a,8a-tetraza-cyclopentanaphthalene-5-carboxy-N-t-butylamide] | 10.1 | 0.033
16 | 2.6 | CCCCc1nc2c(=O)n3n(c(=O)c2n1Cc1ccc(-c2ccccc2-c2nnn[nH]2)cc1)C1CCC3(CO)CC1 [Compound No. 220, 2-n-butyl-5,8-ethano-5-hydroxymethyl-5,6,7,8-tetrahydro-1-[{2'-(1H-tetrazol-5-yl)biphenyl-4-yl}methyl]-1H-1,3,4a,8a-tetraza-cyclopentanaphthalene-4,9-dione] | 9.93 | 0.27
17 | 3.8 | CCCCc1nc2c(=O)n3n(c(=O)c2n1Cc1ccc(-c2ccccc2-c2nn[nH]n2)cc1)C1C=CC3CC1 (centres unmarked) [compound 106, 2-n-butyl-5,8-dihydro-5,8-ethano-1-[(2'-(1H-tetrazol-5-yl)biphenyl-4-yl)methyl]-1H-1,3,4a,8a-tetraza-cyclopentanaphthalene-4,9-dione] | 9.2 | 
18 | 1.3 | CCCCc1nc2c(=O)n3n(c(=O)c2n1Cc1ccc(-c2ccccc2-c2nn[nH]n2)cc1)C(C)CCC3C(=O)OCC (centres unmarked) [compound 169, ethyl 2-n-butyl-4,9-dioxo-8-methyl-5,6,7,8-tetrahydro-1-[{2'-(1H-tetrazol-5-yl)biphenyl-4-yl}methyl]-1H-1,3,4a,8a-tetraza-cyclopentanaphthalene-5-carboxylate] | 10.19 | 
